According to patent publication US7528259B2, “Derivatives of 4,5,6,7-tetrabromobenzimidazole and method of their preparation” (Selvita SP. Z O. O., priority 2004, dated 2009):
Read-outs that look alike come from different tables or passages of the source. Values belong to the molecule of their own block, whether it stands above or below them.

What was measured:
[1] = target: T1, CK2 (Rattus norvegicus, UniProt P19139); assay: CK2 phosphorylation assay, kinetic determination of inhibition constant; format: biochemical
T1 construct: Native CK1 (nCK1) and CK2 (nCK2) were purified from rat liver; from tissue; host or cells: rat liver

[2] = target: DYRK1a (Homo sapiens, UniProt Q13627); assay: Enzymatic activity of kinases, residual activity with inhibitor; format: biochemical; details: inhibitor at 10 μM; percentage activity without an inhibitor
Description: Tests of enzymatic activity of kinases were carried out using methodology described by Sarno et al. 2003 and are summarized in Table 1. The residual activity was determined by incubation in the presence of inhibitor at a concentration of 10 μM and expressed as percentage activity without an inhibitor.
Saccharomyces cerevisiae piD261 was provided by Dr. S. Facchin (Padova, Italy). The source of all the other protein kinases used for specificity assays is either described or referenced by Davies et al. (2000).

[3] = system: G-CK (casein kinase from Golgi apparatus); assay: as above; format: biochemical, rat; details: inhibitor at 10 μM; percentage activity without an inhibitor
Description: (§1) Tests of enzymatic activity of kinases were carried out using methodology described by Sarno et al. 2003 and are summarized in Table 1. […] Native CK1 (nCK1) and CK2 (nCK2) were purified from rat liver (Meggio et al., 1981); Golgi CK (G-CK), purified from rat lactating mammary gland, was provided by Dr. A. M. Brunati (Padova, Italy). Protein tyrosine kinases Lyn, c-Fgr, Syk (also termed TPK-IIB) were purified from rat spleen as previously referenced (Sarno et al., 2003). Human recombinant α and β subunits of CK2 were expressed in E. coli and the holoenzyme was reconstituted and purified as previously described (Sarno et al., 1996). The […] and […] CK2 mutants were obtained as described previously (Sarno et al., 2003). […] double mutant was obtained with the “QuikChange-SiteDirected Mutagenesis” kit (Stratagene), using human […] cDNA α inserted in pT7-7 vector as template and two synthetic oligonucleotide primers, [NT] and [NT], each complementary to opposite strands of template. Expression and purification of the mutant was performed as previously described (Sarno et al., 2003).

[4] = system: CK1 (casein kinase 1); assay: as above; format: biochemical, rat; details: inhibitor at 10 μM; percentage activity without an inhibitor
Description: as §1

[5] = system: human leukemia Jurkat T cells; assay: Cytotoxic effect, MTT viability assay; format: cell-based; details: 24 hours
Description: Leukemia Jurkat cells were incubated for 24 hours in a medium of increasing concentration of 4,5,6,7-tetrabromobenzimidazole (TBB) or 2-dimethylamino-4,5,6,7-tetrabromobenzimidazole (K25). The cytotoxic effect was assessed by means of staining with a use of MTT, (3-(4,5-dimethylthiazol-2-yl)-3,5-diphenyltriazolium bromide, reagent. Control cells were incubated in a medium with added solvent (DMSO, 05% v/v). The results were calculated as mean values of three experiments. The resulting cytotoxic effect of 4,5,6,7-tetrabromo-2-dimethylaminobenzimidazole on human leukemia Jurkat T cells is presented in FIG. 1. […].
The human leukemia Jurkat T-cell line was maintained in RPMI-1640, supplemented with 10% (v/v) fetal calf serum, 2 mM L-glutamine, 100 units/ml penicillin and 100 ug/ml streptomycin. For the treatment, cells were suspended at a density of 10^6 cells/ml in a medium containing 1% (v/v) fetal calf serum, then incubated at 37° C., in the presence of the compounds at the indicated concentrations. Control cells were treated with equal amounts of solvent inhibitor was solved. […]
(§2) Cell viability was assessed by means of 3-(4,5-dimethylthiazol-2-yl)-3,5-diphenyltriazolium bromide (MTT) reagent, while caspase activation was followed by Western blot monitoring of PARP and HS1 protein degradation, as previously described (Ruzzene et al., 2002).

[6] = system: isolated mitochondria; assay: Depolarization of isolated mitochondria
[7] = system: human leukemia Jurkat cells; assay: Caspase activation by Western blot of PARP and HS1 degradation; format: cell-based; details: 14 hours, 5 or 10 uM, FIG. 2
Description: Leukemia Jurkat cells were incubated for 14 hours without the addition of 2-dimethylamino-4,5,6,7-tetrabromobenzimidazole (C), and in a medium including 5 or 10 uM of 2-dimethylamino-4,5,6,7-tetrabromobenzimidazole and 50 ng/mL of antiFas (aF), a control substance to follow the apoptosis process.
The human leukemia Jurkat T-cell line was maintained in RPMI-1640, supplemented with 10% (v/v) fetal calf serum, 2 mM L-glutamine, 100 units/ml penicillin and 100 ug/ml streptomycin. For the treatment, cells were suspended at a density of 10^6 cells/ml in a medium containing 1% (v/v) fetal calf serum, then incubated at 37° C., in the presence of the compounds at the indicated concentrations. Control cells were treated with equal amounts of solvent inhibitor was solved. At the end of incubations, cells were lysed by the addition of hypoosmotic buffer, as previously described (Sarno et al., 2003).
as §2

[8] = CK2, competitive with respect of ATP, read-out: Inhibition constant Ki

T1 sequence (P19139 whole entry): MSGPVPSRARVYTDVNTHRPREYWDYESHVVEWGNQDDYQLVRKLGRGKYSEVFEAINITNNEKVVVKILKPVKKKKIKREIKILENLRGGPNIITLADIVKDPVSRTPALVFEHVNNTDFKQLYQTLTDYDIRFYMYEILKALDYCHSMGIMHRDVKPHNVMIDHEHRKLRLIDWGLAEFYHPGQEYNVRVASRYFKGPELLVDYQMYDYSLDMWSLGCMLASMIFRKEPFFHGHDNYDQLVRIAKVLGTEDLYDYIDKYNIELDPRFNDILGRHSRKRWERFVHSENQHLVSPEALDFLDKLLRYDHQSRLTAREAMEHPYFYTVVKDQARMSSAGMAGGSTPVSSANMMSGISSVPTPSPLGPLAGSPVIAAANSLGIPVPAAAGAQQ
T1 sequence (P67874 2-215 partner limits assumed): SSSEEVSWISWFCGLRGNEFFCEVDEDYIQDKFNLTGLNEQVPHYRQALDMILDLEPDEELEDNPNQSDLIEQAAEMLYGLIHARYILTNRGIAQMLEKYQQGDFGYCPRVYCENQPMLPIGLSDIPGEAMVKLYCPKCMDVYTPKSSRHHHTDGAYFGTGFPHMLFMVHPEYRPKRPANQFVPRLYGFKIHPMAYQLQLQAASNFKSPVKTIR

Ki [1, 8]: 90 nM
Structure (SMILES): Nc1nc2c(Br)c(Br)c(Br)c(Br)c2[nH]1 [2-amino-4,5,6,7-tetrabromobenzimidazole, reference compound]

Ki [1]: 160 nM
melting point: > 250 °C (dec.)
Structure (SMILES): CN(C)CCNc1nc2c(Br)c(Br)c(Br)c(Br)c2[nH]1 [2-(2-Dimethylaminoethylamino)-4,5,6,7-tetrabromo-1H-benzimidazole]

Ki [1, 8]: 90 nM
melting point: 283 to 285 °C
Structure (SMILES): CNc1nc2c(Br)c(Br)c(Br)c(Br)c2[nH]1 [2-Methylamino-4,5,6,7-tetrabromo-1H-benzimidazole]

Ki [1, 8]: 140 nM
melting point: 258 to 260 °C
Structure (SMILES): CC(O)CNc1nc2c(Br)c(Br)c(Br)c(Br)c2[nH]1 (stereo not drawn) [2-(2-hydroxypropylamino)-4,5,6,7-tetrabromo-1H-benzimidazole]

Residual activity of DYRK1a [2]: 22 percentage
Residual activity of G-CK [3]: 95 percentage
Residual activity of CK1 [4]: 91 percentage
Structure (SMILES): Brc1c(Br)c(Br)c2[nH]nnc2c1Br [TBB, 4,5,6,7-tetrabromobenzotriazole, reference compound]

Structure (SMILES): CN(C)c1nc2c(Br)c(Br)c(Br)c(Br)c2[nH]1 [Example K25, 2-Dimethylamino-4,5,6,7-tetrabromo-1H-benzimidazole]
Residual activity of DYRK1a [2]: 2 percentage
Cytotoxic effect compared with TBB ([5]; FIG. 1): several times higher
Cytotoxic effect compared with TBB ([5]; FIG. 1, listed as 2-dimethylamino-4,5,6,7-tetrabromobenzimidazole): several times more active
Depolarization of isolated mitochondria [6]: does not cause depolarization
Residual activity of G-CK [3]: 92 percentage
Residual activity of CK1 [4]: 87 percentage
Activation of caspase (degradation of HS1 and PARP) [7]: Activation of caspase

Ki [1, 8]: 130 nM
melting point: 216 to 218 °C
Structure (SMILES): OCCNc1nc2c(Br)c(Br)c(Br)c(Br)c2[nH]1 [2-Ethanolamine-4,5,6,7-tetrabromo-1H-benzimidazole]

Ki [1, 8]: 60 nM
melting point: 288 to 290 °C (dec.)
Structure (SMILES): CC(C)Nc1nc2c(Br)c(Br)c(Br)c(Br)c2[nH]1 [2-Isopropylamine-4,5,6,7-tetrabromo-1H-benzimidazole]
